Results: article PMC10507085, “Pharmacological inhibition of TBK1/IKKε blunts immunopathology in a murine model of SARS-CoV-2 infection” (Nature Communications, 2023)

Legend:
Assay in all cases: biochemical
Design in all cases: KINOMEscan competition binding, DNA-tagged kinase against immobilised ligand, qPCR read-out
Conditions in all cases: read-out: Percent Control
ADCK4 = biological target: T1, ADCK4 (Homo sapiens, UniProt Q96D53)
T1 construct: gene COQ8B
Method: (§1) The KINOMEscan^TM kinase assays[65] were performed by Eurofins DiscoverX Corporation. For each kinase, the assay relies on the ability of the tested compound to compete against an immobilised ligand for binding to the DNA-tagged kinase. RT-qPCR is then used to measure the quantity of kinase molecules bound to the immobilised ligand, which is decreased if the tested compound competed with the kinase-ligand interaction. An 11-point 3-fold serial dilution of IDX compound was prepared in 100% DMSO at 100× final test concentration and subsequently diluted to 1× in the assay. […]

ALK = ALK (Homo sapiens, UniProt Q9UM73)
Chain of ALK (Q9UM73 whole entry): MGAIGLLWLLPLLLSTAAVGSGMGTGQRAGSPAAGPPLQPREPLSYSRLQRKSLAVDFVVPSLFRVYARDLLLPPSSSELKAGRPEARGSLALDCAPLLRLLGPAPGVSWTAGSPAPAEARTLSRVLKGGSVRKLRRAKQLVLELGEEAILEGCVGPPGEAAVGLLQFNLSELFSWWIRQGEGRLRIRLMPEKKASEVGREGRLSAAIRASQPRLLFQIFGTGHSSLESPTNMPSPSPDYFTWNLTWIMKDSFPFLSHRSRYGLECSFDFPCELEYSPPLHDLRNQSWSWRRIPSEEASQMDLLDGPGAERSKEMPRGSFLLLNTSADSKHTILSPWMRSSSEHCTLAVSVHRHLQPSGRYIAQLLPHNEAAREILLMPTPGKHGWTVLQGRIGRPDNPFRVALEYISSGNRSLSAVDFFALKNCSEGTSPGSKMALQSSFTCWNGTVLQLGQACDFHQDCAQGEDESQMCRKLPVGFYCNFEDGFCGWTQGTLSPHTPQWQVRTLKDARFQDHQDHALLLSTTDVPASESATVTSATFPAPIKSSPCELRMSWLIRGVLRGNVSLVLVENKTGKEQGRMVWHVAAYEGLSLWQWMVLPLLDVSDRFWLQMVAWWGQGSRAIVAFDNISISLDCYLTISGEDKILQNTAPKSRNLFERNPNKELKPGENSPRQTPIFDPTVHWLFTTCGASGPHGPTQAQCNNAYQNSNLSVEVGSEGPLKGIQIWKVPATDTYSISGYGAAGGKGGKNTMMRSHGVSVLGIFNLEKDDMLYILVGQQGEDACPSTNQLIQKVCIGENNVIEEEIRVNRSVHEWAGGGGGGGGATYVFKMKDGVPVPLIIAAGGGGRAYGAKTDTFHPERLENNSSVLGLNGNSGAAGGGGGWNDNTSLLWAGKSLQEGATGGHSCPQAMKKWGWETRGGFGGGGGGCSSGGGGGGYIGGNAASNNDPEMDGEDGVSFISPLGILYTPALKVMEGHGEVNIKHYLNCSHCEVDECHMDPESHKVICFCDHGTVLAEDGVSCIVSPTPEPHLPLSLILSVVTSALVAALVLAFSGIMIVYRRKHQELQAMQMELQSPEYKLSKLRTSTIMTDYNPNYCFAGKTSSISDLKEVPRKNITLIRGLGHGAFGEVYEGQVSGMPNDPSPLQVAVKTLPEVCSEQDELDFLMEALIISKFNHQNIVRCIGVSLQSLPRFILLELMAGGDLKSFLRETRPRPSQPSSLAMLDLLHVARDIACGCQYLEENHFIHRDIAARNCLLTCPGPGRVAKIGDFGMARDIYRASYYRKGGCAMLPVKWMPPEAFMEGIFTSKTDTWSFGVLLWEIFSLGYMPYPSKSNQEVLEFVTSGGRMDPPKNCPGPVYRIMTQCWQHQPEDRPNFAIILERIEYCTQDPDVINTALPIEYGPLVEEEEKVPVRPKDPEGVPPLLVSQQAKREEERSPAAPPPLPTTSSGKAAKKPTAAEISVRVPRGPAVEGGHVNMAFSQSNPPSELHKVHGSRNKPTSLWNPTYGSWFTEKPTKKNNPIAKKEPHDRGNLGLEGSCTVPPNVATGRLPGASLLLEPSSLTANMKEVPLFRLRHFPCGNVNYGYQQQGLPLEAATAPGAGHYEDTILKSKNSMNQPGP
Method: as §1

ANKK1 = ANKK1 (Homo sapiens, UniProt Q8NFD2)
Method: as §1

CDK19 = CDK19 (Homo sapiens, UniProt Q9BWU1)
Method: as §1

CSNK1G1 = CSNK1G1 (Homo sapiens, UniProt Q9HCP0)
Method: as §1

DYRK1A = DYRK1A (Homo sapiens, UniProt Q13627)
Method: as §1

GSG2 = biological target: T2, GSG2 (Homo sapiens, UniProt Q8TF76)
T2 construct: gene HASPIN
T2 sequence (Q8TF76 whole entry): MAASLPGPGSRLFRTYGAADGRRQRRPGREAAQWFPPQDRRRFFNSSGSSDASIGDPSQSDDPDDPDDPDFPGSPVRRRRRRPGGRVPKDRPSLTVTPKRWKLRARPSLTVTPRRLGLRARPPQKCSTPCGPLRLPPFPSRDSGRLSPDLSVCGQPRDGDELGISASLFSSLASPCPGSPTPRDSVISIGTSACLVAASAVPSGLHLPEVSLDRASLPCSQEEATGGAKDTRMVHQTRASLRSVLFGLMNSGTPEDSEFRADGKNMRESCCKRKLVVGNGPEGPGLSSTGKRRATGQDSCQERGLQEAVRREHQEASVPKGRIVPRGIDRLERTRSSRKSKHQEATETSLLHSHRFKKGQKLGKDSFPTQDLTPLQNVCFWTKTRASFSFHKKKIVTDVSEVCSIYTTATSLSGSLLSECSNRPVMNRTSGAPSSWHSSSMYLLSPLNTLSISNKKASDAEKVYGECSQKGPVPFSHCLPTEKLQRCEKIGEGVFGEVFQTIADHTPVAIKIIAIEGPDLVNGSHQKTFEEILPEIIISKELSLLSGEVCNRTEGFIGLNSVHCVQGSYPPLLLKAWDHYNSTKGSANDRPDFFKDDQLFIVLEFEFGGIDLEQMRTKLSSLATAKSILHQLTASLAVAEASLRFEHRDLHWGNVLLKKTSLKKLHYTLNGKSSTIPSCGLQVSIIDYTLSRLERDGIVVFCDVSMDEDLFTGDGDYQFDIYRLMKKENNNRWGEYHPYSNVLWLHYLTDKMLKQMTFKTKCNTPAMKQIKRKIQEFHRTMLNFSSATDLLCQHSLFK
Method: as §1

HUNK = HUNK (Homo sapiens, UniProt P57058)
Chain of HUNK (P57058 whole entry): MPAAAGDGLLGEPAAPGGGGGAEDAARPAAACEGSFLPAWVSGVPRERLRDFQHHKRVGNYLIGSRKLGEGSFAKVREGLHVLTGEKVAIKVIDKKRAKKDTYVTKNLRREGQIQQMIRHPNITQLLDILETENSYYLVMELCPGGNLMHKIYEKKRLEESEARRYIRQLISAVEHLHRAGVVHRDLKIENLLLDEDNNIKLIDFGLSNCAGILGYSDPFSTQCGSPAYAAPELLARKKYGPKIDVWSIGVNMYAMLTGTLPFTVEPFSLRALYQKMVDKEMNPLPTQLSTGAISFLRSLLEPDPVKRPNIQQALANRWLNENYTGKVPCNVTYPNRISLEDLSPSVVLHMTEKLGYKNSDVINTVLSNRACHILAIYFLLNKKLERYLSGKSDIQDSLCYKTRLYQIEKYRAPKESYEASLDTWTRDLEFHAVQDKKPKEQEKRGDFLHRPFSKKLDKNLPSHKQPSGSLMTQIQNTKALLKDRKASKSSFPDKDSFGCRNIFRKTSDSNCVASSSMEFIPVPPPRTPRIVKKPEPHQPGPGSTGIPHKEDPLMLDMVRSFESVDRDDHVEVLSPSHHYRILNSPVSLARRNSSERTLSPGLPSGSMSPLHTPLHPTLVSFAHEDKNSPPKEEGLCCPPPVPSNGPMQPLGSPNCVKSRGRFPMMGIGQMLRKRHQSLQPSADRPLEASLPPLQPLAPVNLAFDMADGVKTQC
Method: as §1

IRAK3 = IRAK3 (Homo sapiens, UniProt Q9Y616)
Method: as §1

[1] = biological target: T3, JAK3(JH1domain-catalytic) (Homo sapiens, UniProt P52333)
T3 construct: JH1 domain catalytic
Method: as §1

KDR = KDR (Homo sapiens, UniProt P35968)
Chain of KDR (P35968 whole entry): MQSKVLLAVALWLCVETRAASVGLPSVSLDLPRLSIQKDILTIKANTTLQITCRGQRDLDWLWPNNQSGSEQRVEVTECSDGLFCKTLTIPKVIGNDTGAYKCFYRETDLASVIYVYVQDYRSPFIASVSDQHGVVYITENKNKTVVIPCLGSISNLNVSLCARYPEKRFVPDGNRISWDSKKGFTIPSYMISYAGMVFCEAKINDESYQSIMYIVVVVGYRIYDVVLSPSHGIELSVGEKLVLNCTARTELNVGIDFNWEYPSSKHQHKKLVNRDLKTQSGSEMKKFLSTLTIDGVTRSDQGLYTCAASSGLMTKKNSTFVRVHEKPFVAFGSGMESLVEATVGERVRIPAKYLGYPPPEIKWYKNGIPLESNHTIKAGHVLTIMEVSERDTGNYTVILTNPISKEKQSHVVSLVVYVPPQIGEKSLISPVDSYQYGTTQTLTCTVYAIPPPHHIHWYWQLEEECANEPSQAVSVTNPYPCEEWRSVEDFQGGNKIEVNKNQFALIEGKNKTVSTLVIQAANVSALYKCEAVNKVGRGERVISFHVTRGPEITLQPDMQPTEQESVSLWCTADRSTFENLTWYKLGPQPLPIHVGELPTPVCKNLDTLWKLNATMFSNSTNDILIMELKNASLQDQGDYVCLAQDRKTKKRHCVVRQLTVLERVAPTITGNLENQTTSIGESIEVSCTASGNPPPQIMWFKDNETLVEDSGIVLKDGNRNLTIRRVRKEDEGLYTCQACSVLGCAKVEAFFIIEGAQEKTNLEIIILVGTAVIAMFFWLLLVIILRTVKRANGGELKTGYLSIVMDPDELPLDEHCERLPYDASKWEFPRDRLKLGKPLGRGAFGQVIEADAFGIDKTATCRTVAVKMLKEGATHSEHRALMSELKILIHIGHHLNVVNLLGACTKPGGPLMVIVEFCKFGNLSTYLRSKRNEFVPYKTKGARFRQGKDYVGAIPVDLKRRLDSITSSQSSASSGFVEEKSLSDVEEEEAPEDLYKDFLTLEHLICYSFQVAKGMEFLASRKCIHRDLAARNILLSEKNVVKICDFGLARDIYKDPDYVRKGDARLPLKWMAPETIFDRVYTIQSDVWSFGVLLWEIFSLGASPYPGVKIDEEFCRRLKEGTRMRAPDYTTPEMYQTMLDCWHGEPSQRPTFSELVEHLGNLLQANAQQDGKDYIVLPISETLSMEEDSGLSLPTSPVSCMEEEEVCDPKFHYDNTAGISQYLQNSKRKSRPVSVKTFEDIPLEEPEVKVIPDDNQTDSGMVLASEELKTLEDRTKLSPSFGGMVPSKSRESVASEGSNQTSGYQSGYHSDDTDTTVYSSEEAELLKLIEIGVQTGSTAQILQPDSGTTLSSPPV
Method: as §1

KIT-autoinhibited = KIT-autoinhibited (Homo sapiens, UniProt P10721)
Method: as §1

MAPKAPK5 = MAPKAPK5 (Homo sapiens, UniProt Q8IW41)
Method: as §1

MKNK2 = MKNK2 (Homo sapiens, UniProt Q9HBH9)
Method: as §1

MYO3A = MYO3A (Homo sapiens, UniProt Q8NEV4)
Method: as §1

PIP4K2B = PIP4K2B (Homo sapiens, UniProt P78356)
Chain of PIP4K2B (P78356 whole entry): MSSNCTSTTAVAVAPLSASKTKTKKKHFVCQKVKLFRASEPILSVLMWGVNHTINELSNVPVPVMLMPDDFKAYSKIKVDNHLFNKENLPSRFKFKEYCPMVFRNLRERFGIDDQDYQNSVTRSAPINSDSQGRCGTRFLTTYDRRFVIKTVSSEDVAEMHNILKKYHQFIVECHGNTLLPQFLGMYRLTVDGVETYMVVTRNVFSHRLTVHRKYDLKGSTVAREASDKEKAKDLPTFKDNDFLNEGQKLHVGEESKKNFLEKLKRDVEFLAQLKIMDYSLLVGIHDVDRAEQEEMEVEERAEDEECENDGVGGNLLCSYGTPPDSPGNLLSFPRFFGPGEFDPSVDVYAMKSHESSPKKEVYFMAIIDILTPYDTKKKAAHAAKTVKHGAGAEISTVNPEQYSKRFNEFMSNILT
Method: as §1

PRKX = PRKX (Homo sapiens, UniProt P51817)
Method: as §1

[2] = biological target: T4, RSK3(Kin.Dom.2-C-terminal) (Homo sapiens, UniProt Q15349)
T4 construct: gene RPS6KA2; Kin.Dom.2 C-terminal
Method: as §1

STK32A = STK32A (Homo sapiens, UniProt Q8WU08)
Method: as §1

STK36 = STK36 (Homo sapiens, UniProt Q9NRP7)
Method: as §1

Question: How did the remaining binding at 10 µM (ADCK4) turn out when `Oc1ccc(C2=Cc3ccc(O)cc3OC2)cc1` [compound 1, idronoxil] was run?
Answer: 81%

Question: And the remaining binding at 10 µM (ALK)?
Answer: 68%

Question: What about the remaining binding at 10 µM (ANKK1) of the same compound?
Answer: 66%

Question: What about the remaining binding at 10 µM (CDK19) of the same compound?
Answer: 99%

Question: What about the remaining binding at 10 µM (CSNK1G1) of the same compound?
Answer: 95%

Question: What about the remaining binding at 10 µM (DYRK1A) of the same compound?
Answer: 34%

Question: What about the remaining binding at 10 µM (GSG2) of the same compound?
Answer: 5.3%

Question: And the remaining binding at 10 µM (HUNK)?
Answer: 69%

Question: And the remaining binding at 10 µM (IRAK3)?
Answer: 77%

Question: And the remaining binding at 10 µM [1]?
Answer: 52%

Question: What about the remaining binding at 10 µM (KDR) of the same compound?
Answer: 61%

Question: What about the remaining binding at 10 µM (KIT-autoinhibited) of the same compound?
Answer: 60%

Question: And the remaining binding at 10 µM (MAPKAPK5)?
Answer: 75%

Question: And the remaining binding at 10 µM (MKNK2)?
Answer: 54%

Question: What about the remaining binding at 10 µM (MYO3A) of the same compound?
Answer: 91%

Question: What about the remaining binding at 10 µM (PIP4K2B) of the same compound?
Answer: 100%

Question: What about the remaining binding at 10 µM (PRKX) of the same compound?
Answer: 88%

Question: What about the remaining binding at 10 µM [2] of the same compound?
Answer: 75%

Question: What about the remaining binding at 10 µM (STK32A) of the same compound?
Answer: 94%

Question: What about the remaining binding at 10 µM (STK36) of the same compound?
Answer: 78%
